Source: article PMC11012289, “The Discovery of New Inhibitors of Insulin-Regulated Aminopeptidase by a High-Throughput Screening of 400,000 Drug-like Compounds” (International Journal of Molecular Sciences, 2024)

Assays:
IRAP [1] = target: T1, IRAP (Homo sapiens, UniProt Q9UIQ6); assay: Thermal shift (TSA) IRAP assay; type: binding; conditions: screening hits at 30 µM, 1% DMSO
T1 construct: The screen was performed with the soluble truncated IRAP enzyme; made in house

[2] = set-up: method as in ELF screening history; conditions: ref ELF screening history, cited from earlier work; for Enzyme Active: number of ELF enzyme screens in which the compound was active; for Targets active: number of ELF screens in which the compound was active; for Enzyme Active %: share of ELF enzyme targets screened; for Targets Active %: share of all ELF targets screened
IRAP [3] = target: T1, IRAP; assay: Deselection fluorescence IRAP assay with 10 µM zinc; type: biochemical; conditions: 10 µM ZnSO4 in assay buffer; for IC50: read-out: Fluorescence + Zn pIC50 (converted)
IRAP [4] = target: T1, IRAP; assay: Primary fluorescence IRAP assay (L-Leucine-7-amido-4-methylcoumarin cleavage); type: biochemical; conditions: for IC50 / Fluorescence pIC50: 37.5 µM L-Leucine-7-amido-4-methylcoumarin, 60 min RT, dose-response 20 µM-27.4 nM; for IC50: read-out: Fluorescence IC50; for LipE: calculated from (pIC50Fluorescence − LogD)
IRAP [5] = target: T1, IRAP; assay: Orthogonal absorbance IRAP assay (L-Leucine para-nitroanilide cleavage); type: biochemical; conditions: 1 mM L-Leucine p-Nitroanilide, 120 min RT; for IC50: read-out: Absorbance pIC50 (converted)
How it was run: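 Absorbance assay: IRAP protein at 2.5 × 10^−4 mg/mL final with 1 mM L-leucine para-nitroanilide in buffer containing 0.05% BSA; 120 min at RT in the dark. para-Nitroaniline read at 405 nm. Dose–response spanned 20 μM–27.4 nM compound, 1% DMSO.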

T1 sequence (Q9UIQ6 155-1025 limits assumed): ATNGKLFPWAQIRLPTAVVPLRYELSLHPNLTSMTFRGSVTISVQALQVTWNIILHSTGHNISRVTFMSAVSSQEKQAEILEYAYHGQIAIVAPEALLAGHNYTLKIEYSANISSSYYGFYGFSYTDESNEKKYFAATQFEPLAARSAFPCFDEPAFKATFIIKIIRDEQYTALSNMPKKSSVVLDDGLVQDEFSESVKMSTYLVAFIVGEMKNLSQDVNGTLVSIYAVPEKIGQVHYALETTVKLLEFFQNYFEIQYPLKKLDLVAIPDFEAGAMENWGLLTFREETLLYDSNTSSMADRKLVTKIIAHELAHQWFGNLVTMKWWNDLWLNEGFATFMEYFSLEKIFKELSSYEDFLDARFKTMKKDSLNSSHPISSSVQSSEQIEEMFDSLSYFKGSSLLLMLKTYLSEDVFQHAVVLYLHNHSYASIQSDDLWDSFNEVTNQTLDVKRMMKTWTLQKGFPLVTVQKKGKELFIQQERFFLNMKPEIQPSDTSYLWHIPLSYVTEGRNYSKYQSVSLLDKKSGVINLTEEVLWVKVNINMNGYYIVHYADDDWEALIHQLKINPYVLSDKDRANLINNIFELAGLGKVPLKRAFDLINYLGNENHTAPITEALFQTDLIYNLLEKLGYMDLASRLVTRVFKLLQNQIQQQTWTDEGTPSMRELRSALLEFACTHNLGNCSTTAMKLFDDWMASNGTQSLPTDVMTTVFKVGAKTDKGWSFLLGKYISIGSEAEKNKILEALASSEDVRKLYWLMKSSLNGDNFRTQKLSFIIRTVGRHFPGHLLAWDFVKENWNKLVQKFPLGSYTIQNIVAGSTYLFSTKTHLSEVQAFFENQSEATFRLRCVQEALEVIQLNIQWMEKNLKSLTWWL

| Compound | ΔTm at 30 µM (IRAP [1]) [°C] | Enzyme Active [2] | Targets active [2] | Enzyme Active % [2] [%] | Targets Active % [2] [%] | IC50 (IRAP [3]) [µM] | IC50 (IRAP [4]) [µM] | LipE (IRAP [4]) | IC50 (IRAP [5]) [µM] | Fluorescence + Zn pIC50 (IRAP [3]) | Fluorescence pIC50 (IRAP [4]) | Absorbance pIC50 (IRAP [5]) | TSA (∆°C), thermal shift of IRAP (IRAP [1]) [°C] |
| --- | --- | --- | --- | --- | --- | --- | --- | --- | --- | --- | --- | --- | --- |
| CSc1[nH]c(-c2ccccc2)nc1S(=O)(=O)c1ccccc1 [QHL28] | 0.15 | 4 | 6 | 4.3 | 4.0 | 5.62 | 3.24 | 1.54 | 15.5 |  |  |  |  |
| O=C(Cc1cc(N2CCCCCC2)nc(-c2ccc(Cl)cc2)n1)NO [QHL29] | 1.92 | 10 | 14 | 11.8 | 10.2 | 3.24 | 3.31 | 1.60 | 2.95 |  |  |  |  |
| Fc1ccc(F)c(Cn2ccc3ncccc32)c1Cl [QHL31] | 0 | 5 | 8 | 5.3 | 5.3 |  | 3.47 | 1.05 |  | 5.38 | 5.46 | <4.70 |  |
| CCCNc1nc(N(C)C)nc2cc(OC)c(OC)cc12 [QHL32] | 0.15 | 1 | 2 | 2.4 | 2.6 | 6.17 | 3.47 | 3.10 | > 20 |  |  |  |  |
| COc1cc2c(cc1-c1cnco1)C(=O)N(C)C(C)(C=Cc1ccncc1)N2 (stereo not drawn) [QHL33] |  | 4 | 5 | 4.3 | 3.4 |  | 3.72 | 3.82 |  | 5.42 | 5.43 | 5.510 | 0.74 |
| Nc1nc2cc(C(=O)O)ccc2n1Cc1cc(F)cc(F)c1 [QHL34] |  | 1 | 2 | 1.3 | 1.4 |  | 3.89 | 3.88 |  | 5.39 | 5.41 | < 4.70 | 0.3 |
| COc1cc(CN2C(Cc3ccc(S(C)(=O)=O)cc3)CCC2c2cccnc2)cc(OC)c1 (stereo not drawn) [QHL35] |  | 6 | 8 | 6.8 | 5.5 |  | 3.98 | 1.15 |  | 5.34 | 5.40 | 4.85 | 0 |
| O=C(N1CCCC1)C1(CNS(=O)(=O)c2cccc3ccccc23)CC12CCCCC2 (stereo not drawn) [QHL37] |  | 5 | 7 | 12.2 | 9.3 |  | 4.37 | 1.74 |  | 5.36 | 5.36 | < 4.70 | 0.15 |
| NCC[C@H]1CCCCN1C(=O)Cn1nc(-c2ccc(Cl)nc2)c2c1CCCC2 [QHL38] | 2.22 | 5 | 9 | 6.3 | 6.5 | 4.57 | 4.68 | 3.06 | 11 |  |  |  |  |
| CCOC(=O)c1c(Cl)cc(C)nc1N1CCCC(Cc2ccc(C(=O)N(C)C)cc2)C1 (stereo not drawn) [QHL39] |  | 6 | 7 | 7.1 | 4.9 |  | 4.68 | 0.66 |  | 5.33 | 5.33 | 5.12 | 0 |
| O=C1CN(c2cc(=O)n3ccn(Cc4ccc(F)cc4Cl)c3n2)CCN1 [QHL40] | 0.3 | 4 | 6 | 4.3 | 4.2 | 5.25 | 4.68 | 4.38 | > 20 |  |  |  |  |
| CCCCc1nc2ccn(Cc3cccc(C#N)c3)c(=O)c2n1Cc1cccc(C#N)c1 [QHL41] |  | 6 | 8 | 7.6 | 5.5 |  | 4.68 | 0.59 |  | 5.11 | 5.33 | 5.81 | 0.44 |
| NC(=O)CCc1ccc2c(c1)nc(N)n2Cc1ccc(-c2ccccc2)cc1 [QHL42] |  | 6 | 12 | 7.3 | 8.1 |  | 4.79 | 1.29 |  | 5.32 | 5.32 | 5.40 | 2.96 |
| c1scc2c(N3CCCCCC3)nc(N3CCC3)nc12 [QHL44] |  | 4 | 6 | 4.3 | 4.0 |  | 6.46 | 1.50 |  | 5.18 | 5.19 | < 4.70 | 0.44 |
